Measurements published in BindingDB's records for doi:10.7270/Q28G8J4C (Broad Institute, 2009).

target: T1, POsterior Segregation (Caenorhabditis elegans, UniProt G5EF15); assay: inhibitors of POS-1/mex-3 RNA binding, dose response, biochemical, fluorescence polarization (AID 1964)
T1 sequence (G5EF15 whole entry): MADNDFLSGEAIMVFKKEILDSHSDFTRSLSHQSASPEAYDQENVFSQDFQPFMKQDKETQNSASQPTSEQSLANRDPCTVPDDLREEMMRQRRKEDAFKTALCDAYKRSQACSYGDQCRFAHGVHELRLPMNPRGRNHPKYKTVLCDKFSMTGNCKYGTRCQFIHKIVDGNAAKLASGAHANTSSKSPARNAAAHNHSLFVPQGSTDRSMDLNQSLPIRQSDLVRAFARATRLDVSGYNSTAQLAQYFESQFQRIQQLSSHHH

Question: With `O=C(O)c1ccc(S(=O)(=O)N=C2C=C(Nc3ccccc3F)C(=O)c3ccccc32)cc1` as the compound, how does the EC50 read?
Answer: The EC50 was 117 µM.

Question: `Oc1c(Br)cc(Br)c(C=Nn2c(-c3ccccc3)n[nH]c2=S)c1Br` [2,4,6-Tribromo-3-[(3-mercapto-5-phenyl-[1,2,4]triazol-4-ylimino)-methyl]-phenol] was tested. Which EC50 did it give?
Answer: Its EC50 is 8.49 µM.

Question: `O=C1c2cccc3cccc(c23)C(=O)C1[N+](=O)[O-]` [2-nitro-3-oxidanyl-phenalen-1-one] was tested. Which EC50 did it give?
Answer: The EC50 was 12.6 µM.

Question: With `O=[N+]([O-])c1cc([CH+][N-]n2c(O)csc2=S)ccc1Cl` [3-[(4-chloranyl-3-nitro-phenyl)methylideneamino]-2-sulfanylidene-1,3-thiazolidin-4-one] as the compound, how does the EC50 read?
Answer: Its EC50 is 18.6 µM.

Question: Which EC50 does the source give for `CCC(C)N1C(=O)C(=CNNc2nc3c(c(=O)n(C)c(=O)n3C)n2C)C(=O)NC1=S` (stereo not drawn) [8-[2-[(Z)-(1-butan-2-yl-4,6-dioxo-2-sulfanylidene-1,3-diazinan-5-ylidene)methyl]hydrazinyl]-1,3,7-trimethylpurine-2,6-dione] here?
Answer: Its EC50 is greater than 300 µM.

Question: Which EC50 does the source give for `O=C1NC(=O)N(c2ccc(F)cc2)C(=O)C1=Cc1c[nH]c2ccccc12` [SMR000556295] here?
Answer: Its EC50 is 52.2 µM.

Question: Which EC50 does the source give for `N#CC1C(=N)OC2=C(C(=O)CCC2)C1c1ccccc1` (stereo not drawn) [2-amino-5-keto-4-phenyl-4,6,7,8-tetrahydrochromene-3-carbonitrile] here?
Answer: The EC50 was greater than 300 µM.

Question: `O=NCc1cccn1-c1cccc(C(=O)O)c1` [3-[2-(hydroximinomethyl)pyrrol-1-yl]benzoic acid] was tested. Which EC50 did it give?
Answer: Its EC50 is greater than 300 µM.

Question: For `Cc1nnc(N2C(=O)C(=O)C(C(=O)c3ccco3)C2c2ccc(F)cc2)s1` (stereo not drawn) [2-(4-fluorophenyl)-3-(furan-2-carbonyl)-4-hydroxy-1-(5-methyl-1,3,4-thiadiazol-2-yl)-2H-pyrrol-5-one], which EC50 is on record?
Answer: The EC50 was 34.2 µM.

Question: How did the EC50 turn out when `COc1ccc(C2C3=C(CC(C)(C)CC3=O)OC(=N)C2C#N)c(OC)c1OC` (stereo not drawn) [2-amino-5-keto-7,7-dimethyl-4-(2,3,4-trimethoxyphenyl)-6,8-dihydro-4H-chromene-3-carbonitrile] was run?
Answer: The EC50 was greater than 300 µM.

Question: For `O=C(N[N-][CH+]c1cc([N+](=O)[O-])ccc1N1CCCC1)c1ccccn1` [MLS000684285], which EC50 is on record?
Answer: The EC50 was 149 µM.

Question: How did the EC50 turn out when `CCCCCCN1C(=O)NC(=O)C(=CNCCCn2ccnc2)C1=O` [(5E)-1-hexyl-5-[[3-(1-imidazolyl)propylamino]methylidene]-1,3-diazinane-2,4,6-trione] was run?
Answer: The EC50 was greater than 300 µM.

Question: With `CC(=O)C1C(c2ccccc2)=NC(=O)NC1c1ccc(O)c(O)c1` (stereo not drawn) [4-[3,4-bis(oxidanyl)phenyl]-5-ethanoyl-6-phenyl-3,4-dihydro-1H-pyrimidin-2-one] as the compound, how does the EC50 read?
Answer: The EC50 was greater than 300 µM.

Question: `COc1ccc(C2CC(c3ccc(Br)s3)=Nc3ncnn32)cc1OC` (stereo not drawn) [SMR000032927] was tested. Which EC50 did it give?
Answer: The EC50 was 7.82 µM.

Question: `N#CC1C(=N)OC2=C(C(=O)CCC2)[C@]12C(=O)N(CC(N)=O)c1ccccc12` (stereo partly drawn) [2-[(4R)-2-amino-3-cyano-2',5-diketo-spiro[7,8-dihydro-6H-chromene-4,3'-indoline]-1'-yl]acetamide] was tested. Which EC50 did it give?
Answer: The EC50 was greater than 300 µM.

Question: For `C=CCn1c(=O)c(=Cc2ccsc2)s/c1=C(\C#N)C(=O)NCCN1CCOCC1` [2-[3-allyl-4-keto-5-(3-thenylidene)thiazolidin-2-ylidene]-2-cyano-N-(2-morpholinoethyl)acetamide], which EC50 is on record?
Answer: The EC50 was 6.5 µM.

Question: For `O=C1N=C(N2C=CC(c3ccncc3)C=C2)C(=CN=NC(=O)c2ccccc2O)S1` [SMR000646350], which EC50 is on record?
Answer: The EC50 was 11.9 µM.

Question: For `Cc1c(NC=C2C(=O)NC(=O)N(Cc3ccccc3)C2=O)c(=O)n(-c2ccccc2)n1C` [(5E)-1-benzyl-5-[[(1,5-dimethyl-3-oxo-2-phenylpyrazol-4-yl)amino]methylidene]-1,3-diazinane-2,4,6-trione], which EC50 is on record?
Answer: Its EC50 is greater than 300 µM.

Question: How did the EC50 turn out when `COC1=CC([N+](=O)[O-])=CC(/C=N/NC(=O)CC#N)C1=O` (stereo not drawn) was run?
Answer: Its EC50 is greater than 300 µM.

Question: How did the EC50 turn out when `COc1ccc(C2CC(=O)C(=CNCCCO)C(=O)C2)cc1` (stereo not drawn) [2-[(3-hydroxypropylamino)methylidene]-5-(4-methoxyphenyl)cyclohexane-1,3-dione] was run?
Answer: Its EC50 is 34.8 µM.

Question: For `Cc1ccc(NC=C2SC(=O)c3ccccc32)c(C)c1` [(3Z)-3-[(2,4-dimethylanilino)methylene]isobenzothiophen-1-one], which EC50 is on record?
Answer: The EC50 was greater than 300 µM.

Question: `CCCOc1cccc(C2C(C(=O)c3ccco3)C(=O)C(=O)N2c2nnc(C)s2)c1` (stereo not drawn) [3-(furan-2-carbonyl)-4-hydroxy-1-(5-methyl-1,3,4-thiadiazol-2-yl)-2-(3-propoxyphenyl)-2H-pyrrol-5-one] was tested. Which EC50 did it give?
Answer: Its EC50 is 51.9 µM.

Question: How did the EC50 turn out when `COc1cc(C2C3=C(CCCC3=O)OC(=N)C2C#N)ccc1OC(=O)N1CCOCC1` (stereo not drawn) [4-(2-amino-3-cyano-5-oxo-5,6,7,8-tetrahydro-4H-chromen-4-yl)-2-methoxyphenyl morpholine-4-carboxylate] was run?
Answer: The EC50 was greater than 300 µM.

Question: `COc1cc(C2NC(=S)N=C(C)C2C(=O)OC(C)C)ccc1OC(C)C` (stereo not drawn) [4-(3-methoxy-4-propan-2-yloxyphenyl)-6-methyl-2-sulfanylidene-3,4-dihydro-1H-pyrimidine-5-carboxylic acid propan-2-yl ester] was tested. Which EC50 did it give?
Answer: The EC50 was greater than 300 µM.

Question: For `C=CCOc1cccc(C2C(C(=O)c3ccco3)C(=O)C(=O)N2Cc2ccco2)c1` (stereo not drawn) [1-(2-furanylmethyl)-3-[2-furanyl(oxo)methyl]-4-hydroxy-2-(3-prop-2-enoxyphenyl)-2H-pyrrol-5-one], which EC50 is on record?
Answer: The EC50 was greater than 300 µM.

Question: With `C=c1c(C(=O)OC)c(O)c(=Cc2ccco2)n1-c1ccccc1` [MLS000780287] as the compound, how does the EC50 read?
Answer: The EC50 was 99 µM.

Question: Which EC50 does the source give for `O=C1NC(=O)N(CCc2ccc(F)cc2)C(=O)C1=CNNC(=O)c1ccccc1` [N'-[(E)-[1-[2-(4-fluorophenyl)ethyl]-2,4,6-trioxo-1,3-diazinan-5-ylidene]methyl]benzohydrazide] here?
Answer: Its EC50 is greater than 300 µM.

Question: How did the EC50 turn out when `O=C(O)c1ccccc1N=NCc1c(Sc2nnnn2-c2ccccc2)nc2ccccn2c1=O` [MLS000775267] was run?
Answer: Its EC50 is greater than 300 µM.

Question: For `C=c1c(C(=O)OC)c(O)c(=Cc2cccs2)n1-c1ccc(Cl)cc1` [(5E)-1-(4-chlorophenyl)-2-methyl-4-oxo-5-(thiophen-2-ylmethylidene)-3-pyrrolecarboxylic acid methyl ester], which EC50 is on record?
Answer: Its EC50 is greater than 300 µM.

Question: `O=C1CC(=O)c2c(O)cc(O)c(O)c2C1=O` [4,5,7,8-tetrahydroxy-1,2-naphthoquinone] was tested. Which EC50 did it give?
Answer: Its EC50 is 1.07 µM.

Question: How did the EC50 turn out when `C=c1cc(O)c(CN(C)C)c2oc(=Cc3ccco3)c(O)c12` [(2Z)-7-[(dimethylamino)methyl]-2-(furan-2-ylmethylidene)-6-hydroxy-4-methyl-1-benzofuran-3-one] was run?
Answer: The EC50 was 32.1 µM.

Question: With `COc1cccc(C2C(C(=O)c3cc4cccc(OC)c4o3)C(=O)C(=O)N2c2cc(C)on2)c1OC` (stereo not drawn) [2-(2,3-dimethoxyphenyl)-3-[(7-methoxy-1-benzofuran-2-yl)carbonyl]-1-(5-methyl-1,2-oxazol-3-yl)-4-oxidanyl-2H-pyrrol-5-one] as the compound, how does the EC50 read?
Answer: Its EC50 is greater than 300 µM.

Question: Which EC50 does the source give for `COc1ccc(C(=O)CC2=NCC3c4ccccc4CCN3C2=O)cc1` (stereo not drawn) [(3Z)-3-[2-(4-methoxyphenyl)-2-oxidanylidene-ethylidene]-2,6,7,11b-tetrahydro-1H-pyrazino[2,1-a]isoquinolin-4-one] here?
Answer: Its EC50 is greater than 300 µM.

Question: How did the EC50 turn out when `Cc1cc(C(=O)NN=CC2C=C(Cl)C=C([N+](=O)[O-])C2=O)[nH]n1` (stereo not drawn) [SMR000414694] was run?
Answer: The EC50 was greater than 300 µM.

Question: For `O=C(c1ccccc1)[C@@H]1c2c(c(O)n(-c3ccc(F)cc3)c2O)C2CCCN21` (stereo partly drawn) [MLS000769629], which EC50 is on record?
Answer: Its EC50 is 37.9 µM.

Question: Which EC50 does the source give for `O=C(NN=Cc1c(O)ccc2ccccc12)Nc1ccccc1` here?
Answer: The EC50 was 105 µM.

Question: For `N#CC(C(=O)c1cc2ccccc2o1)c1nc2ccccc2s1` (stereo not drawn) [(2Z)-3-(1-benzofuran-2-yl)-2-(3H-1,3-benzothiazol-2-ylidene)-3-oxidanylidene-propanenitrile], which EC50 is on record?
Answer: Its EC50 is greater than 300 µM.

Question: How did the EC50 turn out when `N#CC1C(=N)OC2=C(C(=O)CCC2)C1c1ccc(OC(=O)N2CCOCC2)cc1` (stereo not drawn) [4-(2-amino-3-cyano-5-oxo-5,6,7,8-tetrahydro-4H-chromen-4-yl)phenyl morpholine-4-carboxylate] was run?
Answer: Its EC50 is greater than 300 µM.

Question: Which EC50 does the source give for `CSc1nnc(N2C(=O)C(=O)C(C(=O)c3ccco3)C2c2cccc(Cl)c2)s1` (stereo not drawn) [2-(3-chlorophenyl)-3-(furan-2-carbonyl)-4-hydroxy-1-(5-methylsulfanyl-1,3,4-thiadiazol-2-yl)-2H-pyrrol-5-one] here?
Answer: Its EC50 is 31.3 µM.

Question: With `C=CCOc1ccc(C2C(C(=O)c3ccco3)C(=O)C(=O)N2c2nnc(C)s2)cc1` (stereo not drawn) [3-(furan-2-carbonyl)-4-hydroxy-1-(5-methyl-1,3,4-thiadiazol-2-yl)-2-(4-prop-2-enoxyphenyl)-2H-pyrrol-5-one] as the compound, how does the EC50 read?
Answer: The EC50 was greater than 300 µM.

Question: How did the EC50 turn out when `Cn1cc(C=C2C(=O)NC(=O)N(c3ccccc3)C2=O)c2ccccc21` [SMR000559087] was run?
Answer: Its EC50 is 5.28 µM.

Question: For `Oc1csc(N=NCc2cccs2)n1` [2-[2-(thiophen-2-ylmethylidene)hydrazinyl]-1,3-thiazol-4-one], which EC50 is on record?
Answer: The EC50 was greater than 300 µM.

Question: For `COC(=O)c1[nH]c2cc(OC)c(OC)cc2c1CN=Nc1ccccc1` [methyl (3Z)-5,6-dimethoxy-3-[(2-phenylhydrazinyl)methylidene]indole-2-carboxylate], which EC50 is on record?
Answer: Its EC50 is 20 µM.

Question: For `Cc1ccc(C(=O)C2C(=O)C(=O)N(Cc3ccco3)C2c2ccc(N(C)C)cc2)o1` (stereo not drawn) [2-[4-(dimethylamino)phenyl]-1-(2-furanylmethyl)-4-hydroxy-3-[(5-methyl-2-furanyl)-oxomethyl]-2H-pyrrol-5-one], which EC50 is on record?
Answer: Its EC50 is greater than 300 µM.

Question: How did the EC50 turn out when `COc1ccc(OC)c(C2C(C(=O)c3ccco3)C(=O)C(=O)N2CCN2CCOCC2)c1` (stereo not drawn) [2-(2,5-dimethoxyphenyl)-3-(furan-2-carbonyl)-4-hydroxy-1-(2-morpholin-4-ylethyl)-2H-pyrrol-5-one] was run?
Answer: The EC50 was greater than 300 µM.

Question: How did the EC50 turn out when `O=C(N/N=C/C1C=C(Cl)C=C([N+](=O)[O-])C1=O)c1ccccc1NS(=O)(=O)c1cccs1` (stereo not drawn) [SMR000364876] was run?
Answer: The EC50 was 282 µM.

Question: How did the EC50 turn out when `Cc1ccc(C2C(C(=O)c3ccco3)C(=O)C(=O)N2c2nnc(C)s2)cc1` (stereo not drawn) [3-(furan-2-carbonyl)-4-hydroxy-2-(4-methylphenyl)-1-(5-methyl-1,3,4-thiadiazol-2-yl)-2H-pyrrol-5-one] was run?
Answer: Its EC50 is greater than 300 µM.

Question: `COc1ccc(N2C(=O)C(=Nc3ccccc3O)C(Cl)C2=O)cc1` (stereo not drawn) [3-Chloro-4-(2-hydroxy-phenylamino)-1-(4-methoxy-phenyl)-pyrrole-2,5-dione] was tested. Which EC50 did it give?
Answer: The EC50 was greater than 300 µM.
